Laboratory results from patent US20260000601A1, “Anti-Carbonylation Composition And Method Of Protecting Keratin Materials From Carbonylation Stimuli By Using Compositions Including Polylysines” (ELC Management LLC, priority 2022, published 2026).

Test system: Bovine Serum Albumin (BSA)
Experiment: In vitro anti-carbonylation efficacy test (acrolein-induced carbonylation of BSA, Protein Carbonyl Assay Kit)
Conditions: BSA + acrolein in PBS, 37° C. overnight; for % inhibition of carbonylation (average): blank = 0%; for Percentage of protein carbonylation level (average): blank = 100%
[1] = agent working concentration 0.005%
[2] = agent working concentration 0.05%

Description: This assay provides an in vitro method to determine how an anti-carbonylation agent/composition affects the extent of protein carbonylation. With deionized water, the anti-carbonylation agent/composition to be tested was made into a 1% solution, Bovine Serum Albumin (BSA) was made into a 10 mg/mL solution, and Acrolein was made into a 10 mM solution. Then, in a 1.5 mL centrifuge tube, according to the content in Table 1, BSA (10 mg/mL), anti-carbonylation agent/composition (1%), Acrolein (10 mM) and Phosphate buffer solution (PBS) were added to the centrifuge tube. The sample containing only BSA and PBS served as a baseline, and the sample containing BSA, Acrolein and PBS served as a blank. The final liquid volume in each centrifuge tube was 1.0 mL. Each group contained three replicate samples, and all samples were placed at 37° C. overnight.
The protein carbonyl content in the above samples was detected by using the Protein Carbonyl Assay Kit of Nanjing Jiancheng Bioengineering Institute. The detection methods are as follows: take 0.1 mL of sample into the assay tube, then add 0.4 mL of reagent 3 in the kit, vortex to mix for 1 min, and react at 37° C. for 30 min in the dark. Add 0.5 mL of reagent 5 in the kit, vortex and mix for 1 min, centrifuge at 12,000 r/min for 10 min at 4° C., discard the supernatant, and leave the pellet. Add 1.0 mL of anhydrous ethanol and ethyl acetate (1:1) mixed solution, vortex to mix for 1 min, centrifuge at 12,000 r/min for 10 min at 4° C., discard the supernatant, leave the precipitate, and repeat the above steps four times. Add 1.25 mL of reagent VI in the kit, mix well, place it in 37° C. for 15 min, vortex to mix, dissolve all the precipitates, and centrifuge at 12,000 r/min for 15 minutes. Take the supernatant in a quartz cuvette with a light diameter of 0.5 cm, adjust the zero with reagent six, and measure the absorbance value of each tube at 370 nm (ultraviolet). According to the formula, we can get the protein carbonyl content.
The protein content of the samples was determined using Thermos's Micro BCA™ Protein Assay Kit. First, prepare Diluted Albumin (BSA) Standards (Working Range=20-750 μg/mL). Mix BCA Reagent A with Reagent B (Reagent A:Reagent B=50:1) to prepare working solution. Take 25 μL each of the protein standard at different dilution concentration and the protein sample, add them to the microplate. Add 200 μL of working solution to each well and mix well by shaking on a shaker for 30 s. The microplate was sealed and incubated at 37° C. for 30 min. Cool the microplate to room temperature and measure the absorbance of the sample at a wavelength of 562 nm. The corrected absorbance value is the absorbance value of the blank sample subtracted from the readings of each standard and sample. The protein concentration was read against a standard curve prepared with known amounts of BSA. Referring to the standard curve, according to the corrected absorbance value of each protein sample, read the protein concentration of each sample within the linear range of the standard curve. Calculate the amount of protein in the original sample based on the sample volume and dilution.
The anti-carbonylation capability of each anti-carbonylation agents/composition can be obtained by dividing the carbonylation degree of the sample by the BSA protein content.

Compound	% inhibition of carbonylation (average) [1] [%]	Percentage of protein carbonylation level (average) [1] [%]	% inhibition of carbonylation (average) [2] [%]	Percentage of protein carbonylation level (average) [2] [%]
NCCCC[C@H](N)C(=O)O [L-Lysine]	21	79	40	60
Dendritic PL: dendritic polylysine, DendriClear from Lucas Meyer, Mw = 6171		43		19
